Drawing on article PMC8041777, “Protein kinase A controls the hexosamine pathway by tuning the feedback inhibition of GFAT-1” (Nature Communications, 2021), this text covers IC50 for 1 compound.

For this assay, the target named is T1, GFAT-1 (human GFAT-1 isoform 2, hGFAT1) (Homo sapiens, UniProt Q06210).
T1 construct: gene GFPT1; full length, internal His6-tag between Gly299 and Asp300 (kept), expressed in Sf21 insect cells (MultiBac), Ni-NTA and SEC purified
The assay is described as follows: GDH-coupled amidohydrolysis assay (APADH at […] nm). In kind it is biochemical. The conditions noted are these: 10 mM L-Gln, 6 mM Frc6P, 1 mM APAD, 50 mM KCl, 100 mM potassium phosphate pH 7.5, 37 °C; allosteric feedback inhibitor, isomerase domain site.

T1 sequence (Q06210 2-681 isoform Q06210-2): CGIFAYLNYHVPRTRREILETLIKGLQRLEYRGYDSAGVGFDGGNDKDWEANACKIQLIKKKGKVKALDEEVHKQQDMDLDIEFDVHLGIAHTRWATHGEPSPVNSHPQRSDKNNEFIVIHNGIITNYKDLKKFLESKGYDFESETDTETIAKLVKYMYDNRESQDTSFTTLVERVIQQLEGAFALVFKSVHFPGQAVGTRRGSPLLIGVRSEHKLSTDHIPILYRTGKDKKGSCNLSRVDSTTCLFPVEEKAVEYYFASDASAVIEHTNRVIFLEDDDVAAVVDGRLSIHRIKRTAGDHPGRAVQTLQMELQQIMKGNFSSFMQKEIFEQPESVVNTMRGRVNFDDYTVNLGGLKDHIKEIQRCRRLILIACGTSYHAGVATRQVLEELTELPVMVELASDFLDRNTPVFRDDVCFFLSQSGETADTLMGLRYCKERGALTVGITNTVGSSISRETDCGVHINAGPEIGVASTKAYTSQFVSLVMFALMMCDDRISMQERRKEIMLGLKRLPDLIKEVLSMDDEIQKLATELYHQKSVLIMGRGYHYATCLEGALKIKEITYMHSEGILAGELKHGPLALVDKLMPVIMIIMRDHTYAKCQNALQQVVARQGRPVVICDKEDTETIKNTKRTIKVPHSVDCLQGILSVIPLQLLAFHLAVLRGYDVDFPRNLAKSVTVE

As to `CC(=O)N[C@H]1[C@@H](OP(=O)(O)OP(=O)(O)OC[C@H]2O[C@@H](n3ccc(=O)[nH]c3=O)[C@H](O)[C@@H]2O)O[C@H](CO)[C@@H](O)[C@@H]1O` [UDP-GlcNAc], the IC50 was 41.4 −3.5/+3.9 µM.
